# Reference: article PMC8688997, “Five Constituents Contributed to the Psoraleae Fructus-Induced Hepatotoxicity via Mitochondrial Dysfunction and Apoptosis” (Frontiers in Pharmacology, 2021)
# “Also recorded” adds a separate entry of the source. Where two headings read alike, the source gives them in different places.
# Experiments:
# [1] = system: L02 and HepG2 cells; assay: HCS JC-1 mitochondrial membrane potential (MMP) assay, L02 and HepG2 cells; type: cell-based, human; conditions: 60 μmol/L; 24 h
# Protocol: (§1) Here, L02 and HepG2 cells were plated at a density of […] in 96-well plates. Then, they were treated with bavachin (17, 34, and 68 μmol/L), psoralidin (11.5 23, and 46 μmol/L), bavachinin (15, 30, and 60 μmol/L), neobavaisoflavone (23.5, 47, and 94 μmol/L), and bakuchiol (13, 26, and 52 μmol/L) for 24 h. Then Hoechst 33342, eBioscience™ JC-1 Mitochondrial Membrane Potential Dye, CellROX Deep Red, and HCS LipidTOX™ Green Phospholipidosis Detection Reagent kits were used to characterize their cell counts, nuclear area, MMP, ROS, and intracellular lipid. Consequently, multi-parameter cytotoxicity was analyzed through high-content screening (HCS) analysis (IN Cell Analyzer 2500 HS; Cytiva, Marlborough, MA, USA). Then, a 20× objective was used to collect all images. Three independent wells were examined for each treatment, and 16 fields per well were captured during the analysis. Lastly, HCS analysis was performed using Automated Image and Cell Analysis software (IN Cell Analyzer 2000; USA).
# [2] = system: L02 cells; assay: CCK-8 cell viability assay, L02 cells; type: cell-based, human
# Protocol: (§2) L02 and HepG2 cells were purchased from the China Infrastructure of Cell Line Resources (Beijing, China). They were cultured in Dulbecco’s modified Eagle’s medium (DMEM) high glucose medium (Gibco, Grand Island, NY, USA) supplemented with 10% (v/v) fetal bovine serum (FBS) (Gibco, Melbourne, VIC, Australia) and 1% U/ml of antibiotics (penicillin and streptomycin) at 37°C in an atmosphere containing 5% CO2.
# (§3) The viability of L02 and HepG2 cells was determined using the CCK-8 assay. L02 and HepG2 cells (1 × 10^4 cells/well) were seeded into 96-well plates for 12 h until they visibly reached confluence. Then, the adherent cells were treated with varying concentrations of psoralen (120.86, 161.34, 215.12, 286.83, 382.44, 509.92, 679.90, and 906.53 μmol/L), isopsoralen (161.15, 214.87, 286.64, 382.47, 509.88, 679.85, 906.53, and 1,208.64 μmol/L), bavachin (16.40, 21.95, 29.23, 38.97, 52.04, 69.37, 92.49, and 123.32 μmol/L), psoralidin (8.92, 11.89, 15.82, 21.17, 28.19, 37.58, 50.19, and 66.90 μmol/L), bavachinin (11.82, 15.72, 21.04, 28.01, 37.35, 49.88, 66.49, and 88.65 μmol/L), neobavaisoflavone (5.21, 9.30, 16.50, 29.41, 52.36, 93.07, 165.53, and 294.46 μmol/L), and bakuchiol (11.70, 15.60, 20.75, 27.77, 36.97, 49.30, 65.84, and 87.76 μmol/L). Consequently, these cells were incubated for 24 h, and 100 μl of 10% (v/v) CCK-8 medium solution was added to each well for 2 h. The absorbance (optical density (OD)) of the culture medium was detected at 450 nm using a Multiskan GO microplate reader (Thermo Fisher Scientific). Each experiment was repeated thrice, and each treatment was probed in at least six wells. The following equation was used to calculate the viability of the cells (%): Cell Viability (%)=ODcompound−ODblank/ODcontrol−ODblank×100%
# [3] = system: L02 cells; assay: ALP, ALT and AST in cell culture supernatant, L02 cells; type: cell-based, human
# Protocol: (§4) L02 and HepG2 cells were cultured in 6-well plates at a density of 2 × 10^5 cells/well. Subsequently, they were incubated with bavachin, psoralidin, bavachinin, neobavaisoflavone, and bakuchiol for 24 h, and the cell supernatant was collected. Lastly, aspartate aminotransferase (AST), alanine aminotransferase (ALT), and ALP were detected using a CX4 Pro automatic biochemical analyzer (Beckman, Brea, CA, USA).
# [4] = system: HepG2 cells; assay: HCS CellROX Deep Red ROS assay, HepG2 cells; type: cell-based, human
# Protocol: as §1
# [5] = system: L02 and HepG2 cells; assay: Annexin V-FITC/PI flow cytometry apoptosis assay, L02 and HepG2 cells not distinguished; type: cell-based, human
# Protocol: (§5) First, L02 and HepG2 cells were cultured in 6-well plates at a density of 5 × 10^5 cells/well. Then, they were treated with bavachin (17, 34, and 68 μmol/L), psoralidin (11.5, 23, and 46 μmol/L), bavachinin (15, 30, and 60 μmol/L), neobavaisoflavone (23.5, 47, and 94 μmol/L), and bakuchiol (13, 26, and 52 μmol/L) for 48 h, harvested, and washed with PBS. The apoptosis rate was measured using Pharmingen™ FITC Annexin V Apoptosis Detection Kit I (BD, 556,547, USA) following the instructions from the manufacturer. With the use of a FACSCalibur cytometer (Becton Dickinson, San Jose, CA, USA), 1 × 10^4 cells were acquired and analyzed.
# [6] = system: HepG2 cells; assay: CCK-8 cell viability assay, HepG2 cells; type: cell-based, human
# Protocol: as §2, §3
# [7] = system: L02 and HepG2 cells; assay: HCS LipidTOX Green intracellular lipid assay, L02 and HepG2 cells not distinguished; type: cell-based, human
# Protocol: as §1
# [8] = system: L02 and HepG2 cells; assay: CCK-8 cell viability assay, L02 and HepG2 cells not distinguished; type: cell-based, human; conditions: for effect on cell viability / hepatocyte toxicity (in words): L02 and HepG2 cells; for IC50: read-out: IC50 value (approximate, discussion)
# Protocol: as §2
# The viability of L02 and HepG2 cells was determined using the CCK-8 assay. L02 and HepG2 cells (1 × 10^4 cells/well) were seeded into 96-well plates for 12 h until they visibly reached confluence. […] Consequently, these cells were incubated for 24 h, and 100 μl of 10% (v/v) CCK-8 medium solution was added to each well for 2 h. The absorbance (optical density (OD)) of the culture medium was detected at 450 nm using a Multiskan GO microplate reader (Thermo Fisher Scientific). Each experiment was repeated thrice, and each treatment was probed in at least six wells. The following equation was used to calculate the viability of the cells (%): Cell Viability (%)=ODcompound−ODblank/ODcontrol−ODblank×100%
# [9] = system: L02 and HepG2 cells; type: cell-based; conditions: human, 24 h
# Protocol: as §1
# [10] = system: L02 cells; assay: HCS LipidTOX Green intracellular lipid assay, L02 cells; type: cell-based, human; conditions: 24 h
# Protocol: as §1
# [11] = system: HepG2 cells; assay: HCS LipidTOX Green intracellular lipid assay, HepG2 cells; type: cell-based, human; conditions: 24 h
# Protocol: as §1
# [12] = system: L02 and HepG2 cells; type: cell-based, human
# Protocol: as §4
# [13] = system: L02 cells; assay: Annexin V-FITC/PI flow cytometry apoptosis assay, L02 cells; type: cell-based, human; conditions: 48 h
# Protocol: as §5
# [14] = system: HepG2 cells; parameters: method as in Yu et al., 2020; conditions: another report; ref Yu et al., 2020; read-out: concentration inhibiting 50% cell viability; cited from earlier work
# [15] = system: L02 cells; assay: HCS CellROX Deep Red ROS assay, L02 cells; type: cell-based, human; conditions: only at 68 μmol/L, 24 h
# Protocol: as §1
# [16] = system: HepG2 cells; assay: ALP, ALT and AST in cell culture supernatant, HepG2 cells; type: cell-based, human; conditions: 46 μmol/L, 24 h
# Protocol: as §4
# [17] = Homo sapiens, L02, CCK-8, incubation 24 h or 48 h, read-out: IC50 toward L02 cells
# [18] = Homo sapiens, HepG2, CCK-8, incubation 24 h or 48 h, read-out: IC50 toward HepG2 cells
# [19] = Homo sapiens, HepG2, cell line not distinguished
compound,measurement,setting,value
bavachinin,MMP levels,[1],reduced
same,IC50,"[2]; CCK-8, incubation 24 h or 48 h, read-out: IC50 toward L02 cells",29.8 µM
same,"ALP, ALT, and AST contents","[3]; L02 cells, high dosage, 24 h",increased
same,ROS level,"[4]; HepG2 cells, 30 and 60 μmol/L, 24 h",increased
same,cell apoptosis at low dose concentration,"[5]; 15 μmol/L, 48 h",induced cell apoptosis
same,cell early apoptosis percentage,"[5]; as the concentration increased, compared with the control",markedly and progressively increased
same,IC50,"[6]; CCK-8, incubation 24 h or 48 h, read-out: IC50 toward HepG2 cells",29.1 µM
same,"effect on lipid accumulation, L02 cells compared with HepG2 cells",[7]; 60 μmol/L,more substantial effect on lipid accumulation in L02 cells than HepG2 cells
same,lipid accumulation levels,"[7]; L02 and HepG2 cells, 24 h, p < 0.05, p < 0.01",promoted lipid accumulation
same,effect on cell viability / hepatocyte toxicity (in words),[8],intense repression of cell viability
same,IC50,[8]; cell line not distinguished,~30 µM
"CC(C)=CCc1cc(-c2coc3cc(O)ccc3c2=O)ccc1O [Neobavaisoflavone, neobavaisoflavone]","effect on ROS induction, L02 cells compared with HepG2 cells",[9],stronger effect on ROS induction in L02 cells than HepG2 cells
same,IC50,[2]; [17],47.8 µM
same,"ALP, ALT, and AST contents",[3],increased
same,cell early apoptosis percentage,[5],markedly and progressively increased
same,effect on cell apoptosis (in words),[5],induced apoptosis in a dose-dependent manner
same,IC50,[6]; [18],51.7 µM
same,effect on cell viability / hepatocyte toxicity (in words),[8],intense repression of cell viability
"C=C[C@@](C)(/C=C/c1ccc(O)cc1)CCC=C(C)C [Bakuchiol, bakuchiol]","effect on ROS induction, L02 cells compared with HepG2 cells",[9]; 52 μmol/L,stronger effect on ROS induction in L02 cells than HepG2 cells
same,IC50,[2]; [17],25.9 µM
same,ROS generation,[4],promoted ROS generation
same,"lipid accumulation, times higher than control",[10]; 13 μmol/L,1.88 times
same,"lipid accumulation, times higher than control",[10]; 26 μmol/L,2.18 times
same,"lipid accumulation, times higher than control",[10]; 52 μmol/L,3.37 times
same,cell early apoptosis percentage,[5],markedly and progressively increased
same,effect on cell apoptosis (in words),[5],induced apoptosis in a dose-dependent manner
same,IC50,[6]; [18],34.5 µM
same,"lipid accumulation, times higher than control",[11]; first of three doses (13 μmol/L),1.27 times
same,"lipid accumulation, times higher than control",[11]; second of three doses (26 μmol/L),2.37 times
same,"lipid accumulation, times higher than control",[11]; third of three doses (52 μmol/L),5.84 times
same,"effect on ALP, ALT, and AST contents (in words, discussion)",[12],little effect
same,"increase of ALP, ALT, and AST levels (discussion)",[12],five times
same,necrotic cell percentages,"[13]; 52 μmol/L, Figure 7I",34.6%
same,IC50,[8]; [19],~25 µM
same,effect on cell viability / hepatocyte toxicity (in words),[8],more potent inhibitory effects on cell viability than other compounds
"O=c1ccc2ccc3occc3c2o1 [Isopsoralen, isopsoralen]",IC50,"[2]; Homo sapiens, L02, read-out: IC50 toward L02 cells",77.9 µM
same,IC50,"[6]; Homo sapiens, HepG2, read-out: IC50 toward HepG2 cells",174 µM
same,effect on cell viability / hepatocyte toxicity (in words),[8],little hepatocyte toxicity; also recorded: very low or no toxicity
"O=c1ccc2cc3ccoc3cc2o1 [Psoralen, psoralen]",IC50,[14],~400 µM
same,IC50,[2]; [17],284 µM
same,IC50,[6]; [18],739 µM
same,effect on cell viability / hepatocyte toxicity (in words),[8],very low or no toxicity
same,effect on cell viability / hepatocyte toxicity (in words),[8]; listed as psoralen,little hepatocyte toxicity
"CC(C)=CCc1cc2c(cc1O)O[C@H](c1ccc(O)cc1)CC2=O [Bavachin, bavachin]",ROS level,[15],increased
same,IC50,[2]; [17],33.9 µM
same,"ALP, ALT, and AST contents",[3],increased
same,cell early apoptosis percentage,[5],markedly and progressively increased
same,IC50,[6]; [18],34.8 µM
same,"effect on lipid accumulation, L02 cells compared with HepG2 cells","[7]; human, 24 h, 68 μmol/L",stronger inducing effect on lipid accumulation in the HepG2 cells
same,apoptotic cell percentage,"[13]; L02 cells, increased from 6.7%, concentration not given",44.47%
same,IC50,[8]; [19],~30 µM
same,effect on cell viability / hepatocyte toxicity (in words),[8],intense repression of cell viability
"CC(C)=CCc1cc2c(cc1O)oc(=O)c1c3ccc(O)cc3oc21 [Psoralidin, psoralidin]","ALP level, times higher than control",[16],5.7 times
same,"AST level, times higher than control",[16],5.4 times
same,IC50,[2]; [17],23.1 µM
same,effect on cell apoptosis (in words),[5],little effect on cell apoptosis
same,apoptotic cell percentage,"[5]; 46 μmol/L, 48 h, Figure 7C,D",17%
same,IC50,[6]; [18],23.4 µM
same,"effect on lipid accumulation, L02 cells compared with HepG2 cells","[7]; human, 24 h",more substantial effect on lipid accumulation in L02 cells than HepG2 cells
same,"increase of ALP, ALT, and AST levels (discussion)",[12],five times
same,"induction of ALP, ALT, and AST contents",[12],more than fivefold
same,IC50,[8]; [19],~25 µM
same,effect on cell viability / hepatocyte toxicity (in words),[8],more potent inhibitory effects on cell viability than other compounds
